Assays:
Axl = biological target: T1, Axl (Homo sapiens, UniProt P30530); experiment: LanthaScreen Eu kinase binding assay, Axl; conditions: Tracer 236
T1 construct: purchased Life Technologies
T1 sequence (P30530 26-894): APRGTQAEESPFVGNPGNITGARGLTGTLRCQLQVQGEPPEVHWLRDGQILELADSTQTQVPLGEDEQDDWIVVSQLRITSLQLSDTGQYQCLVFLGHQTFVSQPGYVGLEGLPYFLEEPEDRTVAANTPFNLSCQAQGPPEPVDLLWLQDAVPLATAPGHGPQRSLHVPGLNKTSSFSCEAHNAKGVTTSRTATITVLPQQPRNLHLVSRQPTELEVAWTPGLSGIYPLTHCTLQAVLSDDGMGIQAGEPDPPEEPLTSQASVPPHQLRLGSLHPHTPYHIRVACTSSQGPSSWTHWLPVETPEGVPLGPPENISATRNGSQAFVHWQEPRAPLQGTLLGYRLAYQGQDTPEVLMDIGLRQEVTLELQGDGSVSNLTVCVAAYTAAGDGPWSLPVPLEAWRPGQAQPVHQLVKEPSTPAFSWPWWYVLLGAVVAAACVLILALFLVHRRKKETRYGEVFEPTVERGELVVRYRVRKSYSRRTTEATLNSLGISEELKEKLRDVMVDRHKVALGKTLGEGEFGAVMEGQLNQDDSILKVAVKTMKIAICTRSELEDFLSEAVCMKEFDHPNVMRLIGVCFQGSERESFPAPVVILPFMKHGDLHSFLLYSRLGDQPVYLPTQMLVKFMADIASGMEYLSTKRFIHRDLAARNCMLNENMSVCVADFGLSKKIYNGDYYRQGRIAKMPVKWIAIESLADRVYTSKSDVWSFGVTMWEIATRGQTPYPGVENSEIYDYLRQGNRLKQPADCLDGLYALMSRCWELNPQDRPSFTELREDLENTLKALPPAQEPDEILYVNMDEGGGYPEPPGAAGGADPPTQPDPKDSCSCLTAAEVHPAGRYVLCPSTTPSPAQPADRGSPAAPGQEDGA

[1] = tested on: Axl phosphorylation in transiently transfected HEK293T cells; experiment: Cellular Axl phosphorylation assay; assay type: cell-based; conditions: Homo sapiens, HEK-293T; HEK293T cells transfected with Axl, 1 hour compound treatment, Phospho-Axl vs Total-Axl
Method in brief: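 HEK293T cells transiently transfected with Axl (empty pcDNA_DEST_40 vector as minimum control) were treated with compound in DMSO for 1 h, then lysed. Total and phospho-Axl in lysates were measured by Mesoscale electrochemiluminescence immunoassay. IC50 was taken relative to the DMSO vehicle and empty-vector controls.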

Kd (Axl) [nM]	Structure (SMILES)	IC50 [1] [nM]
< 100	CCOc1cn(-c2ccc(OC)cc2)nc1C(=O)Nc1ccc(Oc2ccnc3cc(OC)c(OC)cc23)cn1 [Compound 1]	< 100
< 100	CCOc1cn(-c2cccs2)nc1C(=O)Nc1ccc(Oc2ccnc3cc(OC)c(OC)cc23)cn1 [Compound 17]	< 100
< 100	CCOc1cn(-c2ccsc2)nc1C(=O)Nc1ccc(Oc2ccnc3cc(OC)c(OC)cc23)cn1 [Compound 18]	< 100
< 100	CCOc1cn(-c2cccnc2Cl)nc1C(=O)Nc1ccc(Oc2ccnc3cc(OC)c(OC)cc23)cn1 [Compound 19]	< 100
< 100	CCOc1cnn(-c2cccs2)c1C(=O)Nc1ccc(Oc2ccnc3cc(OC)c(OC)cc23)cn1 [Compound 20]	< 100
< 100	CCOc1cnn(-c2ccsc2)c1C(=O)Nc1ccc(Oc2ccnc3cc(OC)c(OC)cc23)cn1 [Compound 21]	< 100
< 100	CCOc1cn(-c2cccnc2C)nc1C(=O)Nc1ccc(Oc2ccnc3cc(OC)c(OC)cc23)cn1 [Compound 23]	< 100
< 100	CCOc1cn(-c2ccncc2Cl)nc1C(=O)Nc1ccc(Oc2ccnc3cc(OC)c(OC)cc23)cn1 [Compound 26]	< 100
< 100	CCOc1cn(CC)nc1C(=O)Nc1ccc(Oc2ccnc3cc(OC)c(OC)cc23)cn1 [Compound 27]	< 100
100 to 1000	CCOc1cn(C)nc1C(=O)Nc1ccc(Oc2ccnc3cc(OC)c(OC)cc23)cn1 [Compound 29]	100 to 1000
≥ 1000	CCOc1cnn(C)c1C(=O)Nc1ccc(Oc2ccnc3cc(OC)c(OC)cc23)cn1 [Compound 30]	< 100
< 100	CCOc1cn(-c2ccc(N(C)C)cc2Cl)nc1C(=O)Nc1ccc(Oc2ccnc3cc(OC)c(OC)cc23)cn1 [Compound 31]	< 100
< 100	CCOc1cn(-c2cc[nH]c2)nc1C(=O)Nc1ccc(Oc2ccnc3cc(OC)c(OC)cc23)cn1 [Compound 32]	< 100
< 100	CCOc1cn(-c2ccoc2)nc1C(=O)Nc1ccc(Oc2ccnc3cc(OC)c(OC)cc23)cn1 [Compound 33]	< 100
< 100	CCOc1cn(-c2ccncc2C)nc1C(=O)Nc1ccc(Oc2ccnc3cc(OC)c(OC)cc23)cn1 [Compound 34]	< 100
< 100	CCOc1cn(-c2cnccn2)nc1C(=O)Nc1ccc(Oc2ccnc3cc(OC)c(OC)cc23)cn1 [Compound 36]	< 100
< 100	CCOc1cn(CCn2cccn2)nc1C(=O)Nc1ccc(Oc2ccnc3cc(OC)c(OC)cc23)cn1 [Compound 37]	100 to 1000
< 100	CCOc1cn(-c2cnsc2)nc1C(=O)Nc1ccc(Oc2ccnc3cc(OC)c(OC)cc23)cn1 [Compound 39]	< 100
< 100	CCOc1cn(-c2ccnnc2)nc1C(=O)Nc1ccc(Oc2ccnc3cc(OC)c(OC)cc23)cn1 [Compound 40]	100 to 1000
≥ 1000	CCOc1cn(-c2ccc(C#N)cn2)nc1C(=O)Nc1ccc(Oc2ccnc3cc(OC)c(OC)cc23)cn1 [Compound 43]	≥ 1000
< 100	CCOc1oc(-c2cccnc2)nc1C(=O)Nc1ccc(Oc2ccnc3cc(OC)c(OC)cc23)cn1 [Compound 44]	< 100
< 100	CCOc1sc(-c2cccnc2)nc1C(=O)Nc1ccc(Oc2ccnc3cc(OC)c(OC)cc23)cn1 [Compound 45]	< 100
< 100	CCOc1cn(CC2CCO2)nc1C(=O)Nc1ccc(Oc2ccnc3cc(OC)c(OC)cc23)cn1 (stereo not drawn) [Compound 48]	< 100

Kd (Axl) [nM]	Structure (SMILES)	IC50 [1] [nM]
< 100	CCOc1cn(-c2cnc(C#N)nc2)nc1C(=O)Nc1ccc(Oc2ccnc3cc(OC)c(OC)cc23)cn1 [Compound 55]	< 100
< 100	CCOc1cn(-c2ccn(C)c2)nc1C(=O)Nc1ccc(Oc2ccnc3cc(OC)c(OC)cc23)cn1 [Compound 56]	< 100
< 100	CCOc1cn(-c2ccco2)nc1C(=O)Nc1ccc(Oc2ccnc3cc(OC)c(OC)cc23)cn1 [Compound 57]	< 100
< 100	CCOc1cnn(-c2ccco2)c1C(=O)Nc1ccc(Oc2ccnc3cc(OC)c(OC)cc23)cn1 [Compound 58]	< 100
< 100	CCOc1cn(-c2ncco2)nc1C(=O)Nc1ccc(Oc2ccnc3cc(OC)c(OC)cc23)cn1 [Compound 59]	< 100
< 100	CCOc1cn(-c2cnccc2CCCN(C)C)nc1C(=O)Nc1ccc(Oc2ccnc3cc(OC)c(OC)cc23)cn1 [Compound 61]	< 100
< 100	CCOc1cn(CCOC)nc1C(=O)Nc1ccc(Oc2ccnc3cc(OC)c(OC)cc23)cn1 [Compound 64]	< 100
< 100	CCOc1cn(-c2cnccc2CCN(C)C)nc1C(=O)Nc1ccc(Oc2ccnc3cc(OC)c(OC)cc23)cn1 [Compound 65]	< 100
< 100	CCOc1cn(CC(C)=O)nc1C(=O)Nc1ccc(Oc2ccnc3cc(OC)c(OC)cc23)cn1 [Compound 66]	< 100
< 100	CCOc1cn(C(C)(C)C(=O)NC)nc1C(=O)Nc1ccc(Oc2ccnc3cc(OC)c(OC)cc23)cn1 [Compound 68]	< 100
< 100	CCOc1cn(-c2cnccc2CN(C)C)nc1C(=O)Nc1ccc(Oc2ccnc3cc(OC)c(OC)cc23)cn1 [Compound 73]	< 100
100 to 1000	CCOc1cn(C2CCN(C)C2)nc1C(=O)Nc1ccc(Oc2ccnc3cc(OC)c(OC)cc23)cc1F (stereo not drawn) [Compound 212]	< 100
≥ 1000	CCOc1cnn(C2CCCN(C)C2)c1C(=O)Nc1ccc(Oc2ccnc3cc(OC)c(OC)cc23)cc1F (stereo not drawn) [Compound 213]	100 to 1000
< 100	CCOc1cn(Cc2cnccn2)nc1C(=O)Nc1ccc(Oc2ccnc3cc(OC)c(OC)cc23)cc1F [Compound 215]	< 100
< 100	CCOc1cn(C2CCCN(C(C)=O)C2)nc1C(=O)Nc1ccc(Oc2ccnc3cc(OC)c(OC)cc23)cc1F (stereo not drawn) [Compound 224]	< 100
< 100	CCOc1cn(C2CCCN(C(N)=O)C2)nc1C(=O)Nc1ccc(Oc2ccnc3cc(OC)c(OC)cc23)cc1F (stereo not drawn) [Compound 225]	100 to 1000
< 100	CCOc1cn(Cc2cnccc2C)nc1C(=O)Nc1ccc(Oc2ccnc3cc(OC)c(OC)cc23)cc1F [Compound 226]	< 100
< 100	CCOc1cn(-c2cnccc2C(C)(O)CO)nc1C(=O)Nc1ccc(Oc2ccnc3cc(OC)c(OC)cc23)cc1F (stereo not drawn) [Compound 227]	< 100
< 100	CCOc1cn(-c2nccnc2C(C)(O)CO)nc1C(=O)Nc1ccc(Oc2ccnc3cc(OC)c(OC)cc23)cc1F (stereo not drawn) [Compound 229]	< 100
< 100	CCOc1cn(-c2cnc(N)nc2)nc1C(=O)Nc1ccc(Oc2ccnc3cc(OC(C)C)c(OC)cc23)cc1F [Compound 230]	< 100
< 100	CCOc1cn(-c2cnccc2CO)nc1C(=O)Nc1ccc(Oc2ccnc3cc(OC(C)C)c(OC)cc23)cc1F [Compound 231]	< 100
< 100	CCOc1cn(-c2cnccc2CO)nc1C(=O)Nc1ccc(Oc2ccnc3cc(OC)c(OC(F)(F)F)cc23)cn1 [Compound 233]	< 100
